Measured values as given in US8389573B2, “Glycyrrhetinic acid derivatives” (Wellington Laboratories Inc., priority 2006, dated 2013).
“Also recorded” adds a separate entry of the source.

Experiments:
[1] = system: Sp1, Sp3 and Sp4 in liver; assay: Sp protein expression in non-target tissue (liver) of treated mice; assay type: in vivo; details: preliminary results
From the text: (i) Animal treatment: Male athymic nude mice are obtained from commercial sources and their use approved by the Institutional Animal Care and Use Committee. Ten animals are used for each treatment group and based on consultation with biostatisticians, this number is sufficient for determining statistical significance between treatment groups (41, 42). At least one AR-positive (LNCaP/22Rv1) and AR-negative (PC3/DU145) prostate cancer cell line is used in the xenograft study. Cells are harvested by exposure to trypsin and resuspended in serum-free Hanks' balanced salt solution (HBSS). […] In addition, Western blot analysis of Sp proteins, proapoptotic and antiangiogenic responses is determined on whole cell lysates from compound- and corn oil (vehicle)-treated tumors. Where possible (depending on the amount of protein extracted), the effects of the compound versus corn oil on expression of these proteins is quantitated and statistically analyzed. In addition, the effects of the compound on Sp protein expression in non-target tissue (e.g. liver and kidney) is determined. […] Immunostaining for Sp1, Sp3 and Sp4 and for angiogenic (VEGF, VEGFR1 and VEGFR2) and apoptotic (cleaved PARP, activated caspase 3, survivin and TUNEL) proteins/responses are determined as described above.

SW480 cells = assay: Western blot analysis in SW480 cells; assay type: cell-based, human
Protocol: SW-480 and HT-29 (3×10^5) cells were seeded in six-well plates in DMEM/Ham's F-12 media containing 2.5% charcoal-stripped FBS for 24 h and then treated with either the vehicle (DMSO) or the indicated compounds. Whole-cell lysates were obtained using high-salt buffer [50 mM HEPES, 500 mM NaCl, 1.5 mM MgCl2, 1 mM EGTA, 10% glycerol, and 1% Triton X-100, pH 7.5, and 5 μl/ml Protease Inhibitor Cocktail (Sigma-Aldrich)]. Protein samples were incubated at 100° C. for 2 min, separated on 10% SDS-PAGE at 120 V for 3 to 4 h in 1× running buffer (25 mM Tris-base, 192 mM glycine, and 0.1% SDS, pH 8.3), and transferred to polyvinylidene difluoride membrane (PVDF; Bio-Rad, Hercules, Calif.) at […] for 16 h at 4° C. in 1× transfer buffer (48 mM Tris-HCl, 39 mM glycine, and 0.025% SDS). The PVDF membrane was blocked in 5% TBST-Blotto (10 mM Tris-HCl, 150 mM NaCl, pH 8.0, 0.05% Triton X-100, and 5% nonfat dry milk) with gentle shaking for 30 min and was incubated in fresh 5% TBST-Blotto with 1:1000 (for caveolin-1, p27, p21, cyclin D1, Grp78), 1:500 (for KLF4, NAG-1), 1:250 (for PARP), and 1:5000 (for β-actin) primary antibody overnight with gentle shaking at 4° C. After washing with TBST for 10 min, the PVDF membrane was incubated with secondary antibody (1:5000) in 5% TBST-Blotto for 90 min. The membrane was washed with TBST for 10 min, incubated with 10 ml of chemiluminescence substrate (PerkinElmer) for 1.0 min, and exposed to Kodak X-OMAT AR autoradiography film (Eastman Kodak, Rochester, N.Y.).

[2] = system: Sp1, Sp3 and Sp4 protein expression in Panc28 cells; assay: Sp protein expression (gels) in Panc28 cells; assay type: cell-based
AR promoter = assay: AR-luc promoter luciferase assay in LNCaP cells; assay type: cell-based
From the text: (§1) Transfections: The Gal4 reporter construct containing 5× Gal4 response elements (pGal4) was kindly provided by Dr. Marty Mayo (University of North Carolina, Chapel Hill, N.C.). The Gal4 DBD-PPARγ construct was a gift of Dr. Jennifer L. Oberfield (Glaxo Wellcome Research and Development, Research Triangle Park, N.C.). The PPRE-luc construct contains three tandem PPREs with a minimal TATA sequence linked to the luciferase gene in pGL2. The AR-luc construct containing the −5400 to +580 region of the androgen receptor promoter was provided by Dr. Donald J. Tindall (Mayo Clinic, Rochester, Minn.), and the PSA-luc construct containing the 5.8-kilobase region of the PSA promoter was provided by Dr. Hong-Wu Cheng (University of California, Davis, Calif.). LNCaP cells (1×10^5) were seeded in 12-well plates in DMEM/Ham's F-12 media supplemented with 2.5% charcoal-stripped FBS and grown overnight. Transient transfections were performed using Lipofectamine reagent (Invitrogen) according to the protocol provided by the manufacturer. Transfection studies were performed using 0.4 μg of Gal4Luc, 0.04 μg of β-galactosidase, 0.04 μg of Gal4 DBD-PPARγ, 0.4 μg of AR-luc, and 0.3 μg of PSA-luc. […] A Lumicount luminometer (PerkinElmer Life and Analytical Sciences) was used to quantify luciferase and β-galactosidase activities, and the luciferase activities were normalized to β-galactosidase activity.

PSA promoter = assay: PSA-luc promoter luciferase assay in LNCaP cells; assay type: cell-based; details: basal
From the text: as §1

Sp1, Sp3 and Sp4 expression in liver [1]: unaffected
SMILES: COC(=O)[C@@]1(C)CC[C@]2(C)CC[C@]3(C)C(=CC(=O)[C@@H]4[C@@]5(C)C=C(C#N)C(=O)C(C)(C)[C@@H]5CC[C@]43C)[C@@H]2C1 [β-CDODA-Me, Methyl 2-cyano-3,11-dioxo-18β-oleana-1,12-dien-30-oate]
KLF4 induction (SW480 cells; SW480, 0.5-7.5 μM): induction
NAG-1 induction (SW480 cells; SW480, 24 hr): not induced
induction of GRP78 protein (ER stress) (SW480 cells; SW480, 24 hr): not observed
KLF-4 induction after cotreatment with T007 (SW480 cells; SW480, 24 hr, 10 μM T007): blocks this induction response
down regulation of cyclin D1, p27 or PARP cleavage after cotreatment with T007 (SW480 cells; SW480, 24 hr, 10 μM T007): does not affect
PARP cleavage (indicator of apoptosis) (SW480 cells; SW480, 24 hr, 0.5-5.0 μM): only observed at higher concentrations
p27 protein (SW480 cells; SW480, 24 hr, 0.5-5.0 μM): dose-dependent increase
Cyclin D1 and p21 protein expression (SW480 cells; SW480, 24 hr, 0.5 or 1 μM): unchanged
Cyclin D1 and p21 protein expression (SW480 cells; SW480, 24 hr, 2.5 and 5.0 μM): decreased
caveolin-1 protein expression (SW480 cells; SW480, treatment for 3 days): did not affect expression of caveolin-1
Sp1, Sp3 and Sp4 protein expression [2]: concentration-dependent decrease; also recorded: induces Sp protein degradation
VEGF expression [2]: parallel decrease
caspase-dependent apoptosis (PARP cleavage) [2]: induction of caspase-dependent apoptosis
effects on Sp protein expression with PPARγ antagonist (T007) [2]: not blocked; also recorded: not reversed
effects on Sp protein expression with proteasome inhibitor lactacystin [2]: not blocked; also recorded: only a minimal amount of reversal
luciferase activity of AR-Luc construct (AR promoter): decreased luciferase activity
transactivation of PSA-Luc construct (PSA promoter): inhibited transactivation
